Laboratory results from patent US7851489B2, “Pyridinone compounds” (Bristol-Myers Squibb Company, priority 2006, dated 2010).
pIC50: −log10 of the molar value. Like-named read-outs stand apart in the source and are kept apart here.

What was measured:
[1] = biological target: T1, GST-Met kinase (Homo sapiens, UniProt P08581); assay: Met kinase assay; type: biochemical; conditions: 1 μM ATP, polyGlu:Tyr (4:1) substrate, 60 min at 30° C.
T1 construct: host or cells: baculovirus expression system
Procedure: Incubation mixtures employed for the Met kinase assay contain a baculovirus expressed GST-Met kinase, the synthetic substrate polyGlu:Tyr, (4:1), ATP, ATP-γ-^33 P and buffer containing Mn^++, DTT, BSA, and Tris. Reactions were incubated for 60 minutes at 30° C. and stopped by the addition of cold trichloroacetic acid (TCA) to a final concentration 8%. TCA precipitates were collected onto GF/C unifilter plates (Packard Instrument Co., Meriden, Conn.) using a Filtermate universal harvester (Packard Instrument Co., Meriden, Conn.) and the filters are quantitated using a TopCount 96/384-well liquid scintillation counter (Packard Instrument Co., Meriden, Conn.). Dose response curves were generated to determine the concentration required to inhibit 50% of kinase activity (IC—50). Compounds were dissolved at 10 mM in dimethyl sulfoxide (DMSO) and evaluated at ten concentrations, each in duplicate. The final concentration of DMSO in the assay is 1.7%. IC—50 values were derived by non-linear regression.

[2] = test system: GTL-16 human gastric carcinoma model; assay: In vivo efficacy against GTL-16 gastric carcinoma xenografts
Description: In Vivo Efficacy Determination […] FIG. 1. Antitumor activity against GTL-16 gastric carcinoma xenografts

[3] = Pharmacokinetic parameters obtained in mice, 8 h oral exposure study; type: in vivo; conditions: mouse, serum; single oral dose 50 mg/kg, solution in 70% PEG400/30% water, fasted male Balb/C mice; read-out: Pharmacokinetic Parameters AUC0-8 h
Procedure: Pharmacokinetic Parameters Obtained in Mice. In a 8 h oral exposure studies, a single-dose of 50 mg/kg of the compounds were delivered as a solution in 70% PEG400/30% water by oral gavage to fasted adult male Balb/C mice (n=2 or 3 per compound). Three serum samples were collected from each mouse at 0.5, 1, 4, 8 h time points following oral dosing. The first two samples were obtained by retro-orbital bleed (˜100 μL/20-25 g mouse) and the third sample by cardiac puncture. The blood samples were allowed to clot on ice, centrifuged and then serum harvested. Plasma samples were stored at −20° C. prior to analysis. The plasma samples were analyzed for parent compound via HPLC coupled tandem mass spectrometry (LC/MS/MS).

[4] = test system: U87 human glioblastoma model; assay: In vivo efficacy against U87 glioblastoma xenografts
Description: In Vivo Efficacy Determination […] FIG. 2. Antitumor activity against U87 glioblastoma xenografts

[5] = biological target: T2, CYP3A4 (Homo sapiens, UniProt P08684); assay: Cytochrome P450 assay (recombinant human CYP isoforms, fluorescence); type: in vitro ADME
T2 construct: host or cells: baculovirus-infected insect cells
T2 sequence (P08684 whole entry, canonical isoform): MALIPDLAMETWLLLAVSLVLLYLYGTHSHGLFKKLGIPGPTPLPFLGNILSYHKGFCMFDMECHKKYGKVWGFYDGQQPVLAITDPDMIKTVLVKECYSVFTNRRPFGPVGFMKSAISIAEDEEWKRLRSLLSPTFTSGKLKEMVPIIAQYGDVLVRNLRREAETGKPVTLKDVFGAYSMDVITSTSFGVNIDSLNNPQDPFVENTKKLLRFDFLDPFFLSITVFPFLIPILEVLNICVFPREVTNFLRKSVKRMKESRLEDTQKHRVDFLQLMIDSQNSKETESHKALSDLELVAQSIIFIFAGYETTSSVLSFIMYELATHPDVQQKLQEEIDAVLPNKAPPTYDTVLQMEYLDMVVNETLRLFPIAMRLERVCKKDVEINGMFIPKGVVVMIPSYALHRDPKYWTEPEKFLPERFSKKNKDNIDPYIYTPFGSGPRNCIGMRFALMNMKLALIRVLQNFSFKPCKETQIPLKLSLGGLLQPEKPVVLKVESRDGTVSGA
Procedure: The ability of compound to inhibit the major human cytochrome P450s (CYPs) responsible for drug metabolism was evaluated in vitro using recombinant human CYP isoforms. […] CYP3A4 inhibition was evaluated with two substrates: 7-benzyloxy-4-trifluoromethylcoumarin (BFC) and resorufin benzyl ether (BzRes). A single concentration of each model substrate (at approximately the apparent Km, with the exception of BFC, which was tested below the apparent Km) and multiple concentrations of the test compounds, separated by approximately ½ log units, were tested in duplicate. Metabolism of the model substrates was assayed by the production of 7-hydroxy-3-cyanocoumarin, 3-[2-(N,N-diethylamino)ethyl]-7-hydroxy-4-methylcoumarin, 7-hydroxy-4-trifluoromethylcoumarin or resorufin, and measured via fluorescence detection. Assays were conducted in 96-well microtiter plates in the presence of an NADPH generating system. Positive control samples were included in these studies. […] The IC50 values were calculated utilizing XLfit curve-fitting software.

T1 sequence (P08581 25-1390): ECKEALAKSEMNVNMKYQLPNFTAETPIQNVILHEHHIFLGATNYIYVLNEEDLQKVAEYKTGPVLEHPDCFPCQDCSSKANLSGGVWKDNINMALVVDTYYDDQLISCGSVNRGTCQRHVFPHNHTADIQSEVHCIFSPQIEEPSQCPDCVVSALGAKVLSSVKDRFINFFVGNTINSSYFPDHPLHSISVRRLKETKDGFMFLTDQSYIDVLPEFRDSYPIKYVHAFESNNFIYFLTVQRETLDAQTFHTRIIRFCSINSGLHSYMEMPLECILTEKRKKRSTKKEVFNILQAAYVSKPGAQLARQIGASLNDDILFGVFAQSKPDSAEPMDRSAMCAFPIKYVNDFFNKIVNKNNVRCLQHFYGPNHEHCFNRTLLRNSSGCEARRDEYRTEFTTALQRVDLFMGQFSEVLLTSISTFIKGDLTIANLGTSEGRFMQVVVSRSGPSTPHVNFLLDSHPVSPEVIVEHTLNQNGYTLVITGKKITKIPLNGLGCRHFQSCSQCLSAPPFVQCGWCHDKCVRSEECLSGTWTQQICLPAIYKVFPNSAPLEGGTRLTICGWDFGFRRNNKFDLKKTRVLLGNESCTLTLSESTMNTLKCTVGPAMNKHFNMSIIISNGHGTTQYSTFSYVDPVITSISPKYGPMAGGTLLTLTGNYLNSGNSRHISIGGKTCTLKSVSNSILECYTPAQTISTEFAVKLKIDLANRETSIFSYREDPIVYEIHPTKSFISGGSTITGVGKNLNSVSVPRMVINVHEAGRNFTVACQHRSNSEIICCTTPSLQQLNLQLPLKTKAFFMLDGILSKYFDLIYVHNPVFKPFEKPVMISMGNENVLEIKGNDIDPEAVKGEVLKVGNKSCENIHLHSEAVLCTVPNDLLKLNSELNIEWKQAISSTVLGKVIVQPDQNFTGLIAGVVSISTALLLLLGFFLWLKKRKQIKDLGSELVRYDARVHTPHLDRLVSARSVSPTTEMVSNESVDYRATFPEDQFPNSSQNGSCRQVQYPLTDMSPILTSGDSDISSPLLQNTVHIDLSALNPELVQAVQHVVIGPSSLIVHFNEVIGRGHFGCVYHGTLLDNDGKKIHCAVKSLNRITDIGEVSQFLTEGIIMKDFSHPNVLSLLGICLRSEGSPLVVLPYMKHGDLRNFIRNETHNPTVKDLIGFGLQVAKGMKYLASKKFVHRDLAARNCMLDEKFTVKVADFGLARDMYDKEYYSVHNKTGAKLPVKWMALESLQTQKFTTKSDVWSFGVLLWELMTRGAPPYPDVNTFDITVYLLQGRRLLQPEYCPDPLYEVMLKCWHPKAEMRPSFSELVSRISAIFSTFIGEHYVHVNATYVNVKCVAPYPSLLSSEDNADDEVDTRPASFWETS

CCOc1ccn(-c2ccc(F)cc2)c(=O)c1C(=O)Nc1ccc(Oc2ccnc(N)c2Cl)c(F)c1 [Compound 1, N-(4-(2-Amino-3-chloropyridin-4-yloxy)-3-fluorophenyl)-4-ethoxy-1-(4-fluorophenyl)-2-oxo-1,2-dihydropyridine-3-carboxamide]
pIC50 [1]: 8.46
overt toxicity ([2]; GTL-16 study, 6.25 mg/kg to 50 mg/kg dosed once a day for 14 days): No overt toxicity was observed
maximum efficacious dose level ([2]; GTL-16 tumor xenograft): 25 mg/kg
minimum efficacious dose (MED) ([2]; GTL-16 tumor xenograft): 6.25 mg/kg
antitumor activity ([2]; GTL-16 xenografts, 25 mg/kg): complete tumor stasis
antitumor activity ([2]; GTL-16 xenografts, 50 mg/kg): complete tumor stasis
antitumor activity at higher dose ([2]; GTL-16 xenografts, 100 mg/kg, previously described study): no increase in activity was observed
tumor growth inhibition (TGI) ([2]; GTL-16 xenografts, lowest dose level tested, 6.25 mg/kg): greater than 50%
tumor growth inhibition (TGI) ([2]; GTL-16 xenografts, multiple dose levels ranging from 6.25 mg/kg to 50 mg/kg, once a day for 14 days, for at least one tumor doubling time): greater than 50%
AUC(0-t) [3]: 236 µM·h
antitumor activity ([4]; 25 mg/kg): complete tumor stasis
antitumor activity ([4]; 50 mg/kg): complete tumor stasis

Cl.Nc1cc(Oc2ccc(NC(=O)c3cccn(-c4ccc(F)cc4)c3=O)cc2F)ccn1 [Compound 2, N-(4-(2-Aminopyridin-4-yloxy)-3-fluorophenyl)-1-(4-fluorophenyl)-2-oxo-1,2-dihydropyridine-3-carboxamide, hydrochloride salt]
pIC50 ([5]; substrate 7-benzyloxy-4-trifluoromethylcoumarin (BFC), read-out: CYP 3A4-BFC IC50): 6.29
pIC50 ([5]; substrate resorufin benzyl ether (BzRes), read-out: CYP 3A4-BZR IC50): 5.19
AUC(0-t) [3]: 33 µM·h
